Laboratory results reported in paper PMC6856039 (Investigational New Drugs, 2019).

System: Japanese patients with advanced EGFR mutation-positive NSCLC
Assay: Phase I study: dose-limiting toxicities, adverse drug reactions, tolerability
Assay type: in vivo, human
Description: This was an open-label, non-randomized, dose escalation phase I study conducted between December 14, 2015 and July 7, 2016 at 12 centers in Japan. The study was conducted in three phases (dose escalation phase, expansion phase, and extension phase), and the design is shown in Supplementary Fig. 1 (Online Resource 1). […] In patients who received the BID regimen, the administration interval was ≥10 h.
The first phase was the dose escalation phase conducted according to a 3 + 3 design, with a minimum of three patients treated at each dose level. […] The dosing rationale was derived from a 4-weeks repeated oral-dose toxicology study in monkeys. […] If none of the initial three patients treated within a dose level experienced a dose-limiting toxicity (DLT) during Cycle 1, the dose was escalated to the next level. […] If none of the three additional patients experienced DLTs after all of them completed Cycle 1, the dose was escalated to the next level. If at least one of the additional three patients developed a DLT, then the dose escalation was stopped and at least six evaluable patients were enrolled at the previous dose level to establish the maximum tolerated dose (MTD). The maximum dose level was defined as Dose Level 9 (150 mg/day). Based on safety and PK results, the dosing schedule could be changed to a BID regimen.
AEs were evaluated and graded according to the National Cancer Institute Common Terminology Criteria for Adverse Events Version 4.03. DLTs were also evaluated and defined as hematologic toxicity (Grade 4 neutropenia lasting >7 days, Grade 4 thrombocytopenia or Grade 3 thrombocytopenia associated with bleeding and requiring blood transfusion, or febrile neutropenia) or non-hematologic toxicity (Grade ≥3 nausea/vomiting uncontrolled by aggressive antiemetic treatment, Grade ≥3 diarrhea lasting >48 h and unresponsive to treatment, Grade ≥3 aspartate aminotransferase/alanine aminotransferase lasting >7 days, corneal disorder worsening by ≥1 grade, or Grade ≥3 other non-hematological toxicity).

## C=CC(=O)N[C@H]1CCc2c(-c3cnc4ccccc4c3)c3c(N)ncnc3n2C1 [TAS-121]
4 mg/day QD, N = 29
  ALT increased, ≥G3: 0 n
  AST increased, ≥G3: 0 n
  Decreased appetite, any grade: 0 n
  Decreased appetite, ≥G3: 0 n
  Diarrhea, any grade: 6 n
  Diarrhea, ≥G3: 0 n
  Dry skin, ≥G3: 0 n
  Hemoglobin decreased, ≥G3: 0 n
  Hypoalbuminemia, ≥G3: 0 n
  Malaise, ≥G3: 0 n
  Nausea, ≥G3: 0 n
  Pruritus, ≥G3: 0 n
  Pyrexia, ≥G3: 0 n
  Rash, ≥G3: 0 n
  Stomatitis, ≥G3: 0 n
  Urticaria, ≥G3: 0 n
  Vomiting, ≥G3: 0 n
  WBC decreased, ≥G3: 0 n
8 mg/day BID (MTD) group, 7/38
  proportion of patients whose dose was decreased: 18.4%
8 mg/day BID (MTD) group, 17/38
  proportion of patients whose treatment was interrupted: 44.7%
8 mg/day BID (MTD), 3/38
  incidence of discontinuation due to ADRs: 7.9%
8 mg/day BID, N = 38
  AST increased, ≥G3: 0 n
  Decreased appetite, ≥G3: 0 n
  Dry skin, ≥G3: 0 n
  Hypoalbuminemia, ≥G3: 0 n
  Malaise, ≥G3: 0 n
  Nausea, ≥G3: 0 n
  Other embolic and thrombotic events, ≥G3: 0 n
  Pruritus, ≥G3: 0 n
  Pyrexia, ≥G3: 0 n
  Stomatitis, ≥G3: 0 n
  WBC decreased, ≥G3: 0 n
8 mg/day QD, N = 38
  ALT increased, ≥G3: 0 n
  AST increased, ≥G3: 0 n
  Decreased appetite, ≥G3: 0 n
  Dry skin, ≥G3: 0 n
  Embolic and thrombotic events, any grade: 6 n
  Hypoalbuminemia, ≥G3: 0 n
  Interstitial lung disease, ≥G3: 0 n
  Malaise, ≥G3: 0 n
  Nausea, any grade: 5 n
  Nausea, ≥G3: 0 n
  Other embolic and thrombotic events, ≥G3: 0 n
  Pruritus, ≥G3: 0 n
  Rash maculo-papular, any grade: 11 n
  Stomatitis, ≥G3: 0 n
  Urticaria, any grade: 5 n
  Urticaria, ≥G3: 0 n
  Vomiting, ≥G3: 0 n
  WBC decreased, any grade: 5 n
  WBC decreased, ≥G3: 0 n
10 mg/day QD (MTD) group, 7/18
  proportion of patients whose dose was decreased: 38.9%
10 mg/day QD (MTD) group, 12/18
  proportion of patients whose treatment was interrupted: 66.7%
10 mg/day QD (MTD), 2/18
  incidence of discontinuation due to ADRs: 11.1%
10 mg/day QD, N = 18
  AST increased, ≥G3: 0 n
  Decreased appetite, ≥G3: 0 n
  Diarrhea, ≥G3: 0 n
  Dry skin, ≥G3: 0 n
  Embolic and thrombotic events, any grade: 5 n
  Hypoalbuminemia, ≥G3: 0 n
  Interstitial lung disease, any grade: 0 n
  Interstitial lung disease, ≥G3: 0 n
  Malaise, ≥G3: 0 n
  Nausea, ≥G3: 0 n
  Platelet count decreased, any grade: 12 n
  Pruritus, ≥G3: 0 n
  Pyrexia, ≥G3: 0 n
  Rash maculo-papular, any grade: 0 n
  Rash maculo-papular, ≥G3: 0 n
  Stomatitis, ≥G3: 0 n
  Urticaria, any grade: 6 n
  WBC decreased, any grade: 0 n
  WBC decreased, ≥G3: 0 n
12 mg/day BID, N = 5
  ALT increased, any grade: 0 n
  ALT increased, ≥G3: 0 n
  AST increased, any grade: 0 n
  AST increased, ≥G3: 0 n
  Decreased appetite, ≥G3: 0 n
  Dermatological toxicity, ≥G3: 0 n
  Dry skin, any grade: 0 n
  Dry skin, ≥G3: 0 n
  Embolic and thrombotic events, any grade: 0 n
  Embolic and thrombotic events, ≥G3: 0 n
  Hypoalbuminemia, ≥G3: 0 n
  Malaise, ≥G3: 0 n
  Nausea, ≥G3: 0 n
  Other embolic and thrombotic events, any grade: 0 n
  Other embolic and thrombotic events, ≥G3: 0 n
  Pruritus, any grade: 0 n
  Pruritus, ≥G3: 0 n
  Pulmonary embolism, any grade: 0 n
  Pulmonary embolism, ≥G3: 0 n
  Pyrexia, ≥G3: 0 n
  Rash maculo-papular, ≥G3: 0 n
  Rash, ≥G3: 0 n
  Stomatitis, ≥G3: 0 n
